The Deep4Chem optical property database
“And” between values parts separate entries of the source, which are not always exact repeats. Identical values can stand only once. Each block holds one molecule with its values, some of them ahead of it.

Assay: photoluminescence quantum yield (fraction); solvent given as SMILES

photoluminescence quantum yield (in C1CCCCC1): 0.34
photoluminescence quantum yield (in C1CCOC1): 0.17
photoluminescence quantum yield (in C1COCCO1): 0.26
photoluminescence quantum yield (in CC#N): 0.1 and 0.19
photoluminescence quantum yield (in CCCCCC): 0.22 and 0.3
photoluminescence quantum yield (in CO): 0.12 and 0.1
photoluminescence quantum yield (in ClC(Cl)Cl): 0.23 and 0.3
photoluminescence quantum yield (in ClCCl): 0.15
SMILES: F[B-]1(F)n2c(nc(-c3ccccc3)c2-c2ccccc2)-c2cccc[n+]21

photoluminescence quantum yield (in C1CCOC1): 0.053
SMILES: CN(C)c1ccc(C(=Cc2ccc(/C=C(\C#N)c3ccccc3)cc2)c2ccc(N(C)C)cc2)cc1

photoluminescence quantum yield (in ClCCl): 0.88
photoluminescence quantum yield (in c1cc(-n2c3ccccc3c3ccccc32)cc(-n2c3ccccc3c3ccccc32)c1): 0.83
SMILES: CC(C)(C)c1ccc2c(c1)c1cc(C(C)(C)C)ccc1n2-c1ccc(-c2ccc3c(c2)C2(c4cc(-c5ccc(-n6c7ccc(C(C)(C)C)cc7c7cc(C(C)(C)C)ccc76)cc5)ccc4-3)c3ccccc3S(=O)(=O)c3ccccc32)cc1

photoluminescence quantum yield (in C1CCOC1): 0.011
SMILES: CCOC(=O)c1ccc(C2=C(c3ccccc3)c3sc4ccccc4[n+]3[B-](F)(F)O2)cc1

photoluminescence quantum yield (in ClC(Cl)Cl): 0.28
SMILES: F[B-]1(F)n2cccc2C(c2ccccc2)=C2C=CC(c3cccc(OC4=[N+]5C(=C(c6ccccc6)c6cc(Br)c(Br)n6[B-]5(F)F)C=C4Br)c3)=[N+]21

photoluminescence quantum yield (in CO): 0.77
SMILES: O=C(O)CCCOc1cc2ccc3cccc4ccc(c1)c2c34

photoluminescence quantum yield (in ClCCl): 0.72
SMILES: COCCOCCOCCOCC(COCCOCCOCCOC)Oc1cc(/C=C/c2ccc(/C=C(\C#N)c3ccccc3)cc2)c(OC(COCCOCCOCCOC)COCCOCCOCCOC)cc1/C=C/c1ccc(/C=C(\C#N)c2ccccc2)cc1

photoluminescence quantum yield (in ClCCl): 0.6
SMILES: C(=C\c1ncccn1)/c1ccc(-c2ccc(N(c3ccccc3)c3ccccc3)cc2)cc1

photoluminescence quantum yield (in CN(C)C=O): 0.15
SMILES: O=C1NC(=O)c2ccc3c4ccc5c6c(ccc(c7ccc1c2c73)c64)C(=O)N(c1ccc(O)cc1)C5=O

photoluminescence quantum yield (in ClC(Cl)Cl): 0.03 and 0.07
SMILES: C(#Cc1cccs1)C(C#Cc1cccs1)=Cc1ccc(C=C(C#Cc2cccs2)C#Cc2cccs2)s1

photoluminescence quantum yield (in C1CCOC1): 0.619
SMILES: CC1=[N+]2C(=C(c3ccc(C(=C(c4ccccc4)c4ccccc4)c4ccccc4)cc3)c3ccc(/C=C/c4ccc(C(=C(c5ccccc5)c5ccccc5)c5ccccc5)cc4)n3[B-]2(F)F)C=C1

photoluminescence quantum yield (in C1COCCO1): 0.22
SMILES: CCC12C(=C3C(=C4c5ccccc5S(=O)(=O)C41CC)C(F)(F)C(F)(F)C3(F)F)c1ccccc1S2(=O)=O (configuration not stated)

photoluminescence quantum yield (in ClCCl): 0.34
SMILES: CCOCCOCCOC(=O)/C=C/C1=CC2=C(c3c(C)cc(C)cc3C)c3cc(/C=C/C(=O)OCCOCCOCC)cn3[B-](F)(F)[N+]2=C1

photoluminescence quantum yield (in ClC(Cl)Cl): 0.19
SMILES: O=Cc1ccc(Oc2ccc3c4c(cccc24)C(=O)N(CCO)C3=O)cc1

photoluminescence quantum yield (in C1CCOC1): 0.14
photoluminescence quantum yield (in CC#N): 0.05
photoluminescence quantum yield (in CCCCCC): 0.45
SMILES: CC1=N/C(=C\c2cc(C#N)cc(N(C)C)c2)C(=O)N1C

photoluminescence quantum yield (in ClCCl): 0.00114
SMILES: CCOC(=O)C1=C(C(=O)OCC)C2(c3ccccc3-c3ccccc32)[C@@H](c2ccc(Cl)cc2)C=C2c3cc(OC)c(OC)cc3CCN21

photoluminescence quantum yield (in C1COCCO1): 0.1
photoluminescence quantum yield (in CC#N): 0.09
photoluminescence quantum yield (in CCCCCC): 0.15
photoluminescence quantum yield (in CCCCCCC): 0.17
photoluminescence quantum yield (in CCCO): 0.13
photoluminescence quantum yield (in CCOC(C)=O): 0.08
photoluminescence quantum yield (in CS(C)=O): 0.15
photoluminescence quantum yield (in ClC(Cl)Cl): 0.13
photoluminescence quantum yield (in ClCCl): 0.12
SMILES: COc1ccc(C#Cc2ccc(C#N)cc2)cc1

photoluminescence quantum yield (in ClC(Cl)Cl): 0.18
SMILES: CCCCCCN1C(=O)c2cccc3c(-c4ccc(Cl)s4)ccc(c23)C1=O

photoluminescence quantum yield (in CC#N): 0.84
photoluminescence quantum yield (in ClCCl): 0.98
SMILES: COc1ccc(-c2cc3c(s2)c(C(C)=O)cc(=O)n3C)cc1

photoluminescence quantum yield (in CN(C)C=O): 0.5
photoluminescence quantum yield (in ClC(Cl)Cl): 0.7
SMILES: CCCCCCCCCCOc1ccc2c3c(oc2c1)C1=C2C(=O)N4C=Cc5c(oc6cc(OCCCCCCCCCC)ccc56)C4=C2C(=O)N1C=C3

photoluminescence quantum yield (in ClCCl): 0
SMILES: C(#Cc1ncc(-c2ccccc2)o1)c1ccco1

photoluminescence quantum yield (in CCO): 0.22
SMILES: CCOC(=O)c1cc(C(=O)OCC)c2c(C)ccc(OC(=O)OC(C)(C)C)c2n1

photoluminescence quantum yield (in C1CCCCC1): 0.001
SMILES: COc1ccc(/C=C(\C)c2nc3ccccc3s2)cc1

photoluminescence quantum yield (in ClCCl): 0.185
SMILES: Cc1cc2ccccc2c2c1c1ccccc1n2C(=O)OC(C)(C)C

photoluminescence quantum yield (in C1CCOC1): 0.55
photoluminescence quantum yield (in C1COCCO1): 0.46
photoluminescence quantum yield (in CC#N): 0.53
photoluminescence quantum yield (in CCO): 0.54
photoluminescence quantum yield (in ClCCl): 0.55
SMILES: C(=C\c1ccc(N(c2ccccc2)c2ccccc2)cc1)/c1ccc(-c2cc(-c3ccccn3)nc(-c3ccccn3)c2)cc1

photoluminescence quantum yield (in C1CCOC1): 0.00016
SMILES: C1=Cc2ccccc2C(=Cc2ccc(-c3ccc(C=C4c5ccccc5-c5ccccc54)cc3)cc2)c2ccccc21

photoluminescence quantum yield (in O): 0.1
SMILES: COc1cc(/C=C/CO)ccc1O

photoluminescence quantum yield (in CC#N): 0.02
SMILES: Cc1cc(=O)c2c(ccc3ccc(O)cc32)o1

photoluminescence quantum yield (in ClC(Cl)Cl): 0.1
SMILES: CC(C)[Si](C#Cc1c2c(=O)c3ccccc3c2c(C#C[Si](C(C)C)(C(C)C)C(C)C)c2c(=O)c3ccccc3c12)(C(C)C)C(C)C

photoluminescence quantum yield (in ClC(Cl)Cl): 0.95
SMILES: CCCCCCCCC1(CCCCCCCC)c2cc(-c3ccc(C#N)cc3)ccc2-c2ccc(-c3ccc(C#N)cc3)cc21

photoluminescence quantum yield (in C1CCOC1): 0.04
SMILES: CCCCCCCCCCCCOc1cc(C(=O)Nc2ccc(-c3ccc4c(c3)C(=O)c3ccccc3-4)cc2)cc(OCCCCCCCCCCCC)c1OCCCCCCCCCCCC

photoluminescence quantum yield (in CN(C)C=O): 0.11
SMILES: O=C([O-])c1ccc2cc3cc(C(=O)[O-])ccc3cc2c1

photoluminescence quantum yield (in CC(C)O): 0.17
SMILES: CC[n+]1c(C=C2C(=O)C(C=C3Sc4cc(Cl)ccc4N3C)=C2[O-])[se]c2ccccc21

Continued, molecule first:

SMILES: c1ccc(-c2nc(-c3ccccc3)nc(-c3ccc(-n4c5ccccc5c5ccc6c7ccccc7n(-c7ccccc7)c6c54)cc3)n2)cc1
photoluminescence quantum yield (in O=P(c1ccccc1)(c1ccccc1)c1ccc2oc3ccc(P(=O)(c4ccccc4)c4ccccc4)cc3c2c1): 0.84

SMILES: CSc1ccc(C#Cc2ccc(C#Cc3ccc(C#Cc4ccccc4C#N)cc3C#N)cc2C#N)cc1
photoluminescence quantum yield (in ClC(Cl)Cl): 0.972

SMILES: Cc1cc(-c2ccc(-n3c4ccccc4c4ccccc43)cc2)nc(-c2ccc(-c3ccccc3)cc2)n1
photoluminescence quantum yield (in C1CCOC1): 0.62
photoluminescence quantum yield (in CN(C)C=O): 0.59
photoluminescence quantum yield (in Cc1ccccc1): 0.52
photoluminescence quantum yield (in ClC(Cl)Cl): 0.75

SMILES: Cc1ccc2nc3c(=O)[nH]c(=O)[nH]c3nc2c1
photoluminescence quantum yield (in CC#N): 0.017
photoluminescence quantum yield (in ClCCCl): 0.024

SMILES: Cc1cn(C)c(=O)nc1-n1cncn1
photoluminescence quantum yield (in O): 0.071

SMILES: O=C1c2cc3ccccc3cc2C2=Nc3ccc4ccccc4[n+]3[B-](F)(F)N12
photoluminescence quantum yield (in ClCCl): 0.93

SMILES: C[Si]1(c2ccccc2)C(c2ccc(-n3c4ccccc4c4ccccc43)cc2)=C(c2ccccc2)C(c2ccccc2)=C1c1ccc(-n2c3ccccc3c3ccccc32)cc1
photoluminescence quantum yield (in C1CCOC1): 0.032

SMILES: C[C@]12C(=O)NC(=O)N([C@H]3CC(O)[C@@H](CO)O3)[C@H]1[C@H]1Oc3cc4oc(=O)ccc4cc3[C@H]12 (some centres not stated)
photoluminescence quantum yield (in CC(C)O): 0.003
photoluminescence quantum yield (in CCO): 0.005
photoluminescence quantum yield (in CCOCC): 0.001
photoluminescence quantum yield (in CO): 0.007
photoluminescence quantum yield (in O): 0.044

SMILES: CCCCCCCCC1(CCCCCCCC)c2cc(C#CC#Cc3ccc(N(c4ccccc4)c4ccccc4)cc3)ccc2-c2ccc(C=O)cc21
photoluminescence quantum yield (in C1CCOC1): 0.9
photoluminescence quantum yield (in C1COCCO1): 0.76
photoluminescence quantum yield (in CC#N): 0.2
photoluminescence quantum yield (in CC(C)=O): 0.23
photoluminescence quantum yield (in CCCCCC): 0.5
photoluminescence quantum yield (in CCOC(C)=O): 0.76
photoluminescence quantum yield (in CN(C)C=O): 0.16
photoluminescence quantum yield (in CS(C)=O): 0.2
photoluminescence quantum yield (in Cc1ccccc1): 0.94
photoluminescence quantum yield (in ClC(Cl)Cl): 0.09
photoluminescence quantum yield (in ClCCl): 0.7

SMILES: CN(C)c1ccc(/C=C/C=C/c2nc3ccccc3o2)cc1
photoluminescence quantum yield (in CC#N): 0.0055
photoluminescence quantum yield (in CCCCCC): 0.0176
photoluminescence quantum yield (in CCCCO): 0.0045
photoluminescence quantum yield (in CCCO): 0.0045
photoluminescence quantum yield (in CCO): 0.0048
photoluminescence quantum yield (in CN(C)C=O): 0.007
photoluminescence quantum yield (in CO): 0.0045
photoluminescence quantum yield (in Cc1ccccc1): 0.0078
photoluminescence quantum yield (in ClCCl): 0.0048
photoluminescence quantum yield (in OCC(O)CO): 0.0359
photoluminescence quantum yield (in OCCO): 0.0088

SMILES: [O-]c1ccccc1-c1[nH+]c2c3cccnc3c3ncccc3c2n1-c1ccccc1
photoluminescence quantum yield (in Cc1ccccc1): 0.125

SMILES: CCCCC#Cc1cccc2cc(CCCC)c3cc(-c4cc[b-]5c(c4)c(CCCC)cc4cccc(C#CCCCC)[n+]54)cc[b-]3[n+]12
photoluminescence quantum yield (in C1CCCCC1): 0.12

SMILES: F[B-]1(F)OC(c2ccc(C(F)(F)F)cc2)=Cc2c3ccccc3cc[n+]21
photoluminescence quantum yield (in ClC(Cl)Cl): 0.026

SMILES: COc1ccc(N(c2ccc(/C=C(\C)c3ccccc3)cc2)c2ccc(/C=C(\C)c3ccccc3)cc2)cc1
photoluminescence quantum yield (in Cc1ccccc1): 0.48

SMILES: C=Cc1ccc(-c2ccc(-c3nnc(-c4ccc(-c5nnc(-c6ccc(-c7ccc(C=C)cc7)s6)o5)cc4)o3)s2)cc1
photoluminescence quantum yield (in ClC(Cl)Cl): 0.62

SMILES: CCN1c2ccc(/C=N/Nc3ccccn3)cc2Sc2cc(-c3ccc(C#N)cc3)ccc21
photoluminescence quantum yield (in C1CCOC1): 0.23
photoluminescence quantum yield (in CS(C)=O): 0.23
photoluminescence quantum yield (in Cc1ccccc1): 0.33
photoluminescence quantum yield (in ClCCl): 0.36

SMILES: CCCSc1ccc2n1[B-](F)(F)[N+]1=C(SC#N)C=CC1=C2c1ccccc1
photoluminescence quantum yield (in CC#N): 0.16
photoluminescence quantum yield (in CCCCCC): 0.18
photoluminescence quantum yield (in CCOC(C)=O): 0.2
photoluminescence quantum yield (in CO): 0.16
photoluminescence quantum yield (in ClCCl): 0.27

SMILES: c1ccc(-c2ccc(-c3nc(-n4c5ccccc5c5ccc6c7ccccc7n(-c7ccccc7)c6c54)nc(-n4c5ccccc5c5ccc6c7ccccc7n(-c7ccccc7)c6c54)n3)cc2)cc1
photoluminescence quantum yield (in Cc1ccccc1): 0.1

SMILES: Cc1cc(C)c(B(c2ccc(-c3ccc4ccc5cccc6ccc3c4c56)cc2)c2c(C)cc(C)cc2C)c(C)c1
photoluminescence quantum yield (in Cc1ccccc1): 0.61

SMILES: c1ccc(N(c2ccccc2)c2c3ccccc3cc3ccccc23)cc1
photoluminescence quantum yield (in Cc1ccccc1): 0.92

SMILES: Cc1cc(C)c(B(c2c(C)cc(C)cc2C)N2c3ccccc3C3(c4ccccc4-c4ccccc43)c3ccccc32)c(C)c1
photoluminescence quantum yield (in C1CCCCC1): 0.978
photoluminescence quantum yield (in Cc1ccccc1): 0.942
photoluminescence quantum yield (in ClCCl): 0.539

SMILES: Fc1ccc(C2=C(c3ccc(F)cc3)c3cccc4c3c(cc3nc5ccccc5nc34)O2)cc1
photoluminescence quantum yield (in ClCCl): 0.35

SMILES: CCCC1(CCC)c2cc(C#N)ccc2-c2ccc(C#N)cc21
photoluminescence quantum yield (in C1CCCCC1): 0.32
